This assay has as its system HepG2 viability, ATP luminescence (CellTiter-Glo), 72 h. The experiment in a line: viability loss in HepG2 hepatoma cells – cell-based, luminescence, dry powder, set 12, cytotoxicity control, dose response (AID 743471).
As for `Cn1cc(-c2ccncc2)c(-c2ccc(OCc3ccc4ccccc4n3)cc2)n1`, the AC35 is 12.9 µM.
In the case of `COc1ccc(C2=Nn3c(nnc3-c3ccccc3F)SC2)cc1OC` it was 20.8 µM; in that of `Nc1ccn([C@@H]2O[C@H](CO)[C@H](O)C2O)c(=O)n1` (some centres not stated), 3.04 µM.
In the case of `CCc1c2c(nc3ccc(O)cc13)-c1cc3c(c(=O)n1C2)COC(=O)C3(O)CC` (configuration not stated) it was 0.241 µM; in that of `CN1CCN(CCOc2cc(OC3CCOCC3)c3c(Nc4c(Cl)ccc5c4OCO5)ncnc3c2)CC1`, 25.4 µM.
As to `Cc1cc(Nc2cc(N3CCN(C)CC3)nc(Sc3ccc(NC(=O)C4CC4)cc3)n2)n[nH]1`, the AC35 was 8.49 µM.
In the case of `COc1ccc(C(=O)CC2(O)C(=O)Nc3c(Cl)ccc(Cl)c32)cc1` (configuration not stated) it was 8.13 µM; in that of `COc1ccc(C2=Nn3c(nnc3-c3ccccc3OC)SC2)cc1OC`, 0.53 µM.
In the case of `N#CC1=C(N)Oc2cc(O)ccc2C1c1cccc(Br)c1` (configuration not stated) it was 13.7 µM; in that of `COc1ccc(-c2ccc3c(c2)[C@H]2[C@H](CCN2S(=O)(=O)c2ccc(OC)cc2)[C@@H](CO)N3)cc1`, 21.2 µM.
In the case of `COc1ccc(-c2cc(NC(C)=O)c3ncc(-c4ccc(OC)c(OC)c4)n3c2)cc1` it was 17.9 µM.
For the compound `CCC(C)C(=O)OC1CC(C)C=C2C=CC(C)C(CCC(O)CC(O)CC(=O)O)C21` (configuration not stated), the AC35 is 88 µM.

These data come from PubChem BioAssay AID743471 (Broad Institute, 2014).
